Test results reported in patent publication US8415469B2, “Compounds and methods for kinase modulation, and indications therefor” (Plexxikon Inc., priority 2005, dated 2013).

Tests used:
Assay type in all cases: biochemical
Akt3 = Akt3 (Homo sapiens, UniProt Q9Y243); assay: AlphaScreen kinase assay, Akt3; details: read-out: IC50, activity toward kinase Akt3
Outline: (§1)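 Eight concentrations per compound (1:3 serial dilution of 20 mM DMSO stock) were tested. Read-out: AlphaScreen signal from phospho-antibody acceptor and streptavidin donor beads bound to biotinylated peptide substrate, reduced on kinase inhibition.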

IKK beta = target: T1, IKK beta (Homo sapiens, UniProt O14920); assay: AlphaScreen kinase assay, IKK beta; details: read-out: IC50, activity toward kinase IKK beta
T1 sequence (O14920 1-756): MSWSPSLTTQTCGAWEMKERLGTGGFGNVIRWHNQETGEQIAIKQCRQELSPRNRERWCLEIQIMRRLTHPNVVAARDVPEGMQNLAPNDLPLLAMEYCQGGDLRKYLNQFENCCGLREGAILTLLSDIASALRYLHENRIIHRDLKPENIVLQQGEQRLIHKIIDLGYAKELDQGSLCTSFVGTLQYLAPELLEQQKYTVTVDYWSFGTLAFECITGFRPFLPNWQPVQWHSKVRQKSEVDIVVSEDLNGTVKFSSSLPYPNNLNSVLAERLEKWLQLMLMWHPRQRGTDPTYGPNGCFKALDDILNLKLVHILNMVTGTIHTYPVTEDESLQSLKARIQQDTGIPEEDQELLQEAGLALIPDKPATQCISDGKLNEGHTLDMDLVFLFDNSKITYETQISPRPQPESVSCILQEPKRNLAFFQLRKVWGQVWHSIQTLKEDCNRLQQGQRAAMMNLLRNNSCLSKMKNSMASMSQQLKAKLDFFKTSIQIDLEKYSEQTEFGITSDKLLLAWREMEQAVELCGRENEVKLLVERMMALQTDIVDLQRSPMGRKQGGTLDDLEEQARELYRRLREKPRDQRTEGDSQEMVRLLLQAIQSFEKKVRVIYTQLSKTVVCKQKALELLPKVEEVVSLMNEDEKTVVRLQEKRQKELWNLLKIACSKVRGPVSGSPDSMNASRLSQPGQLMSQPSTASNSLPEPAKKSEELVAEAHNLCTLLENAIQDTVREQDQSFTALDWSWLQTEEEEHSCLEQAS

Kit = target: T2, Kit (Homo sapiens, UniProt P10721); assay: AlphaScreen kinase assay, Kit; details: read-out: IC50, activity toward kinase Kit
T2 construct: P1332.N6 BI PTP KIT M552-K948-X COD; His6 (N); made in house; host or cells: E. coli (PTP1B co-expressed)

Flt1 = target: T3, Flt1 (Homo sapiens, UniProt P17948); assay: AlphaScreen kinase assay, Flt1; details: read-out: IC50, activity toward kinase Flt1
T3 construct: P1826.pETN6 BI-PTP FLT1 M799-D1165-X WT; His6 (N); made in house; host or cells: E. coli (PTP1B co-expressed)
T3 sequence (P17948 with tags, fused parts or gaps): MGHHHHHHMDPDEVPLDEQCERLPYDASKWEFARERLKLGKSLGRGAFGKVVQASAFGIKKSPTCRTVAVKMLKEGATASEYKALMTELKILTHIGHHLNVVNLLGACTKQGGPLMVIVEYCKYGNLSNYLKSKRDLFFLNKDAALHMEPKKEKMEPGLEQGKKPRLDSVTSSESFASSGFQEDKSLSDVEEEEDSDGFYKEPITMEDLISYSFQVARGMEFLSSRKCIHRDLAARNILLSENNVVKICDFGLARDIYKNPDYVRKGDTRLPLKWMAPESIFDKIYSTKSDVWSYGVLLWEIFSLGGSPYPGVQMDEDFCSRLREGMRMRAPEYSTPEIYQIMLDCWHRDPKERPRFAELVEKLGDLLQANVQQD

FGFR1 = target: T4, FGFR1 (Homo sapiens, UniProt P11362, C488A/C584S); assay: AlphaScreen kinase assay, FGFR1; details: read-out: IC50, activity toward kinase FGFR
T4 construct: P1351.pET N6 BI-PTP FGFR A458-E765-X C488A, C584S; made in house; host or cells: E. coli (PTP1B co-expressed)

Kdr = target: T5, Kdr (Homo sapiens, UniProt P35968); assay: Z'-Lyte FRET kinase assay (Invitrogen), Kdr; details: read-out: IC50, activity toward kinase Kdr
T5 construct: purchased Invitrogen (assay run by Invitrogen)

MAP2K1 = target: T6, MAP2K1 (Homo sapiens, UniProt Q02750); assay: Z'-Lyte FRET kinase assay (Invitrogen), MAP2K1; details: read-out: IC50, activity toward kinase MAP2K1
T6 construct: purchased Invitrogen (assay run by Invitrogen)

Stk6 = target: T7, Stk6 (Homo sapiens, UniProt O14965); assay: Z'-Lyte FRET kinase assay (Invitrogen), Stk6; details: read-out: IC50, activity toward kinase Stk6
T7 construct: purchased Invitrogen (Carlsbad, Calif.), screening service
T7 sequence (O14965 1-403): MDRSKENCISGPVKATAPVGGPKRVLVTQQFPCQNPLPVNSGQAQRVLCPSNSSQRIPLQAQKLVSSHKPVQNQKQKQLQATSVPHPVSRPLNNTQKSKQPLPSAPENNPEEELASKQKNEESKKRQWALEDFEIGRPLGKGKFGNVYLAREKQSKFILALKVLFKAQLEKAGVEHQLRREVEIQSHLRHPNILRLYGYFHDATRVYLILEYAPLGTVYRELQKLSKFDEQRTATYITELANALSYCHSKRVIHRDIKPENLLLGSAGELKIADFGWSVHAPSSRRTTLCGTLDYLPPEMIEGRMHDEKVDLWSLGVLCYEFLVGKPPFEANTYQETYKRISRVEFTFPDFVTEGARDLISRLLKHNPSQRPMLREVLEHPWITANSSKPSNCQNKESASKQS

Met = target: T8, Met (Homo sapiens, UniProt P08581); assay: AlphaScreen kinase assay, Met; details: read-out: IC50, activity toward kinase Met
T8 construct: P1818.pETN6 BI-PTP MET G1056-G1364-X WT; His6 (N); made in house; host or cells: E. coli (PTP1B co-expressed)
Outline: as §1

B-Raf V600E = target: T9, B-Raf V600E (Homo sapiens, UniProt P15056, V600E); assay: AlphaScreen kinase assay, B-Raf V600E; details: read-out: IC50, activity toward kinase B-Raf V600E
T9 construct: P4254. pFastBacBD-CDC37 BRAF D437-K722-X, V600E; His6 with pFastBac HT leader (TEV site) (N); made in house; host or cells: Sf9 (baculovirus; chaperone CDC37 co-expressed)

Jnk3 = target: T10, Jnk3 (Homo sapiens, UniProt P53779); assay: AlphaScreen kinase assay, Jnk3; details: read-out: IC50, activity toward kinase Jnk3
T10 construct: purchased Upstate Biotechnology

Ret = target: T11, Ret (Homo sapiens, UniProt P07949); assay: AlphaScreen kinase assay, Ret; details: read-out: IC50, activity toward kinase Ret
T11 construct: P1378.pET-SF BI-PTP RET H661-R1012 HIS; made in house
T11 sequence (P07949 with tags, fused parts or gaps): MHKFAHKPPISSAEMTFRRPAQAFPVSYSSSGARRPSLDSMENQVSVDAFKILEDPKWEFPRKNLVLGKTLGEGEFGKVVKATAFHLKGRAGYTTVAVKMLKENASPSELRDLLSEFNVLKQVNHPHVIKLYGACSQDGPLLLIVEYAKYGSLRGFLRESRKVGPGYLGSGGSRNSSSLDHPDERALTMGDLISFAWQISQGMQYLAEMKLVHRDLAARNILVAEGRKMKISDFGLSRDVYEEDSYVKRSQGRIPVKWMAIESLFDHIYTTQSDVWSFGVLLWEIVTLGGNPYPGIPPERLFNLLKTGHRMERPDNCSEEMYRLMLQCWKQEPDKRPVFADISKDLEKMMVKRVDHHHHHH

Btk = target: T12, Btk (Homo sapiens, UniProt Q06187); assay: Z'-Lyte FRET kinase assay (Invitrogen), Btk; details: read-out: IC50, activity toward kinase Btk
T12 construct: purchased Invitrogen (assay run by Invitrogen)

c-Raf-1 = target: T13, c-Raf-1 (Homo sapiens, UniProt P04049); assay: AlphaScreen kinase assay, c-Raf-1; details: read-out: IC50, activity toward kinase c-Raf-1
T13 construct: purchased Upstate Biotechnology

B-Raf = target: T14, B-Raf (Homo sapiens, UniProt P15056); assay: AlphaScreen kinase assay, B-Raf; details: read-out: IC50, activity toward kinase B-Raf
T14 construct: purchased Upstate Biotechnology

MAP4K4 = MAP4K4 (Homo sapiens, UniProt O95819); assay: AlphaScreen kinase assay, MAP4K4; details: read-out: IC50, activity toward kinase MAP4K4

Chain of Akt3 (Q9Y243 whole entry): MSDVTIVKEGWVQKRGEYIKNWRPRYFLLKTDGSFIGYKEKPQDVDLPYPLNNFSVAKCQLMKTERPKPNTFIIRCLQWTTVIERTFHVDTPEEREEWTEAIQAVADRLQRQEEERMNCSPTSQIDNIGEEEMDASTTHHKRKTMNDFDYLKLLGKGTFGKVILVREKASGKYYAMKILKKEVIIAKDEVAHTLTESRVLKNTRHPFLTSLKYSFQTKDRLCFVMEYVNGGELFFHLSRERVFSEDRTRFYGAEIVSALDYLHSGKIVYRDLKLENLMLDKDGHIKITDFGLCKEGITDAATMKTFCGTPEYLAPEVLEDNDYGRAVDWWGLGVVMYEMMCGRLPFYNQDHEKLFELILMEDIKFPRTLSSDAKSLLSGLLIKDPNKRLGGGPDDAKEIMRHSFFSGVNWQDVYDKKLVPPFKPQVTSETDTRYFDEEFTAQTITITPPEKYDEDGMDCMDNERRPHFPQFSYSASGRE
T9 sequence (P15056 with tags, fused parts or gaps V600E): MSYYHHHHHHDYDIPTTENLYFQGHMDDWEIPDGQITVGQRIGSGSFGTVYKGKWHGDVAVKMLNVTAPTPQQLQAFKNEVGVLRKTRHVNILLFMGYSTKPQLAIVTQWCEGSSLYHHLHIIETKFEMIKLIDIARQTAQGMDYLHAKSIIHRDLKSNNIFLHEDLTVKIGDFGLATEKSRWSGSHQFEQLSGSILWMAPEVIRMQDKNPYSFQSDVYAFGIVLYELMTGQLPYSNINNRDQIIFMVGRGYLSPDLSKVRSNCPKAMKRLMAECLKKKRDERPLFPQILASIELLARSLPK
T6 sequence (Q02750 whole entry): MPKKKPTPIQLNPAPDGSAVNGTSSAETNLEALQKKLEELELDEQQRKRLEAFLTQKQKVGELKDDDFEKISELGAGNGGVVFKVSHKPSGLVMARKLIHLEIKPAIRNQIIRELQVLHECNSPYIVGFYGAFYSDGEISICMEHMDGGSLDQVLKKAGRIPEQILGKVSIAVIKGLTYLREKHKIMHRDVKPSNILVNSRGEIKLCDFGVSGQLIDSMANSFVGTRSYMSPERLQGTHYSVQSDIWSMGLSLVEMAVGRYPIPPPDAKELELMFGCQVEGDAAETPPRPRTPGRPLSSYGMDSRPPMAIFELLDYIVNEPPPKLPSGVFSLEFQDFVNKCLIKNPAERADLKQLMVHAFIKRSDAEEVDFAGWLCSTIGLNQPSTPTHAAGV
T4 sequence (P11362 458-765 C488A/C584S): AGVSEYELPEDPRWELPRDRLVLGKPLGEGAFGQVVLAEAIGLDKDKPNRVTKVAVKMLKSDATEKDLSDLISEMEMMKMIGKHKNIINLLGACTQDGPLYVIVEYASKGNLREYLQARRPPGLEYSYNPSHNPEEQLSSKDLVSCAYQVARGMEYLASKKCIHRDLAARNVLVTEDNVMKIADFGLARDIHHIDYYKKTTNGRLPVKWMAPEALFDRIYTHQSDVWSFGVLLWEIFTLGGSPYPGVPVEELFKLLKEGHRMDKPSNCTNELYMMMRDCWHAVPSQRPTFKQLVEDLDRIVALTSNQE
T5 sequence (P35968 20-1356): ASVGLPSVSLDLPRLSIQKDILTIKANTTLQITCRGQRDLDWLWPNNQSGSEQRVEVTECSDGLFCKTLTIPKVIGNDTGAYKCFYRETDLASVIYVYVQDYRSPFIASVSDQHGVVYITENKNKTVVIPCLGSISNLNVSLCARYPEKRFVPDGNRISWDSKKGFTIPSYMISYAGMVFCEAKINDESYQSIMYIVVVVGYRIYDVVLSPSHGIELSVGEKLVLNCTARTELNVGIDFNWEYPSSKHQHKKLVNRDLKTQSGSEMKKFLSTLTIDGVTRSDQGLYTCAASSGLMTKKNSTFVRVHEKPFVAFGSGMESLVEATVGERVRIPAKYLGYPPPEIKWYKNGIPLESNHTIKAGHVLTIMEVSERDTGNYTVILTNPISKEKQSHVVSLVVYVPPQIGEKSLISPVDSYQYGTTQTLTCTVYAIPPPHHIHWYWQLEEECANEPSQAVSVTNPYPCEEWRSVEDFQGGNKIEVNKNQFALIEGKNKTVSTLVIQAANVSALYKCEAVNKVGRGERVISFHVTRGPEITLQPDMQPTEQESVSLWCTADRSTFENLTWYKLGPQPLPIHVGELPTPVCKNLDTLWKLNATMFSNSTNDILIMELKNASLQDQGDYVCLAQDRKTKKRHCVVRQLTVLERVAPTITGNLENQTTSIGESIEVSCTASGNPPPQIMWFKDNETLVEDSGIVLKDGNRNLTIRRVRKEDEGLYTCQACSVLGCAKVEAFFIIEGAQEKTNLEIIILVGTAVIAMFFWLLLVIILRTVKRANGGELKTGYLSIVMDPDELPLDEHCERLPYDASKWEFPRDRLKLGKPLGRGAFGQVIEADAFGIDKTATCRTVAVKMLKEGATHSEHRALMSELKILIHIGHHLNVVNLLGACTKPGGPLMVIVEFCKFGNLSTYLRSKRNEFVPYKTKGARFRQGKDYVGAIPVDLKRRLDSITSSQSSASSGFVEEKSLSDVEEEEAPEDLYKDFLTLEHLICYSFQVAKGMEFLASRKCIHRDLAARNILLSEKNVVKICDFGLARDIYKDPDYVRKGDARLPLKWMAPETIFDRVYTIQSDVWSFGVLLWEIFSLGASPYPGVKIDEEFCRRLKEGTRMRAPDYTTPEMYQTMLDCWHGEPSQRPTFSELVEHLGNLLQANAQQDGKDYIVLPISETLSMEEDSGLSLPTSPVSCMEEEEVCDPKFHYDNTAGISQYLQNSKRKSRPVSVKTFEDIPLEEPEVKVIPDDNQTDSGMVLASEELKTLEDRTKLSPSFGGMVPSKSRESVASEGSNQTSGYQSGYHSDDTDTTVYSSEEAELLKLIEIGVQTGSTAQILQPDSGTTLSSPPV
T10 sequence (P53779 whole entry): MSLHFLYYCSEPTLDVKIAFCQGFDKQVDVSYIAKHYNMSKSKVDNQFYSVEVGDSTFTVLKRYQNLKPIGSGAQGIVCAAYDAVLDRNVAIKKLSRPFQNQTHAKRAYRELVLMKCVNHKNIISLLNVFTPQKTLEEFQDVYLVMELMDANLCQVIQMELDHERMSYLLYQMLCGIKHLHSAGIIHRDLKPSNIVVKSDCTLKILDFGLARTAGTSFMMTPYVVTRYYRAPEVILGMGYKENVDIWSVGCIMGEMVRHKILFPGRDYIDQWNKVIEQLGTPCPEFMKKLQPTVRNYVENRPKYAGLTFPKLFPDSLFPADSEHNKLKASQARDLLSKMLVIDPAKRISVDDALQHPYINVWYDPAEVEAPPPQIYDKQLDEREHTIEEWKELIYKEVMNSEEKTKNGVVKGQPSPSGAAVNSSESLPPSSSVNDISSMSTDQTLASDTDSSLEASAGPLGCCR
T2 sequence (P10721 with tags, fused parts or gaps): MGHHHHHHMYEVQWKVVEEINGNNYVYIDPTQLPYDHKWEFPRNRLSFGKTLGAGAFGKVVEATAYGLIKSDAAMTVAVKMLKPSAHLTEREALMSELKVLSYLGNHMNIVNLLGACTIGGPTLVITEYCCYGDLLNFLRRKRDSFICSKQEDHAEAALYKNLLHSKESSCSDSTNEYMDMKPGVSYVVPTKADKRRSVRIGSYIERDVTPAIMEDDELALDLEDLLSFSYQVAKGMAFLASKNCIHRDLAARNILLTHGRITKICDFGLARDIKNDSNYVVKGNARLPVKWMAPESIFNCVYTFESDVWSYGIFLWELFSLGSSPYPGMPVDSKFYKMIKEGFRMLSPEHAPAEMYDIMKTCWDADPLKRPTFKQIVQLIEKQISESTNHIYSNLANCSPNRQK
T12 sequence (Q06187 whole entry): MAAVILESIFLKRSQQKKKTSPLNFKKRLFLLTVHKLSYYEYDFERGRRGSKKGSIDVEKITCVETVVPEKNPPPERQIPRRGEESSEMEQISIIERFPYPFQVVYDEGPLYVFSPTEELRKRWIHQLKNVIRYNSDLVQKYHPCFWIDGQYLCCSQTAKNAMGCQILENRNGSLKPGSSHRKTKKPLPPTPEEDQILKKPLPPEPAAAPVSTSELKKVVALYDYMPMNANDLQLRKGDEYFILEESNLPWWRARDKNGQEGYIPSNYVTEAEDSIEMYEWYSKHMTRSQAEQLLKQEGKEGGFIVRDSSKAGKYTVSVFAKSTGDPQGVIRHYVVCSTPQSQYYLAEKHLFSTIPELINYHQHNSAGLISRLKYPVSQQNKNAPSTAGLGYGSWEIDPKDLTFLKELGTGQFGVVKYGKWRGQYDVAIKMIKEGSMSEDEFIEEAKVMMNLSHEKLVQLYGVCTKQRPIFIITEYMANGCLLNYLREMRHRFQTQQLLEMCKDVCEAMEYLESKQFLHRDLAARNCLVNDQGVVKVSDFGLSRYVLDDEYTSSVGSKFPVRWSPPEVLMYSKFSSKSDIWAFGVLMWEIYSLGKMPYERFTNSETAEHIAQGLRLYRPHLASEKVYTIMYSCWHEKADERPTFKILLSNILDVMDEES
T8 sequence (P08581 with tags, fused parts or gaps): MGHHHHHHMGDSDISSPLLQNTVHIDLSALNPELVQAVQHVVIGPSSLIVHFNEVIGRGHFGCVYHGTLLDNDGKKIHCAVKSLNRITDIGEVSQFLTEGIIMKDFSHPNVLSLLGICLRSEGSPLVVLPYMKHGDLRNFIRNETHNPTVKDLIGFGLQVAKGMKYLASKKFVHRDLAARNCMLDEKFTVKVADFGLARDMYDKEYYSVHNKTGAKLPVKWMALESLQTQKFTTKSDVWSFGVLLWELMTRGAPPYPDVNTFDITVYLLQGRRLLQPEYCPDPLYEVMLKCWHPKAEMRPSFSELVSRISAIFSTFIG

Structure (SMILES)	IC50 (IKK beta) [µM]	IC50 (Kit) [µM]	IC50 (Kdr) [µM]	IC50 (Stk6) [µM]	other results
c1csc(-c2cnc3[nH]ccc3c2)c1 [Compound P-0179]	≤ 10	≤ 10	≤ 10	≤ 10	IC50 (Ret): ≤ 10 µM; IC50 (Jnk3): ≤ 10 µM
Nc1cccc(C(=O)c2c[nH]c3ncccc23)c1 [Compound P-0096]	≤ 10		≤ 10		IC50 (Ret): ≤ 10 µM; IC50 (FGFR1): ≤ 10 µM
CS(=O)(=O)c1ccc(-c2c[nH]c3ncccc23)cc1 [Compound P-0177]	≤ 10		≤ 10	≤ 10	IC50 (MAP2K1): ≤ 10 µM; IC50 (Flt1): ≤ 10 µM
COc1cccc(C(=O)c2c[nH]c3nccc(-c4ccc(C(N)=O)cc4)c23)c1 [Compound P-0073]	≤ 10		≤ 10		IC50 (Ret): ≤ 10 µM; IC50 (B-Raf V600E): ≤ 10 µM; IC50 (FGFR1): ≤ 10 µM; IC50 (Btk): ≤ 10 µM
CCCNS(=O)(=O)c1ccc(F)c(C(=O)c2c[nH]c3ncc(-c4cccnc4)cc23)c1F [Compound P-0896]	≤ 10				IC50 (c-Raf-1): ≤ 10 µM; IC50 (B-Raf): ≤ 10 µM; IC50 (B-Raf V600E): ≤ 10 µM; IC50 (FGFR1): ≤ 10 µM; IC50 (MAP4K4): ≤ 10 µM
Cc1nc(-c2ccnc3[nH]ccc23)no1 [Compound P-0163]	≤ 10		≤ 10	≤ 10	
Clc1ccc(-c2ccnc3[nH]ccc23)cn1 [Compound P-0127]	≤ 10	≤ 10	≤ 10	≤ 10	IC50 (Akt3): ≤ 10 µM; IC50 (Flt1): ≤ 10 µM
Cc1cc(-c2c(C)[nH]c3ncccc23)ccc1F [Compound P-0376]	≤ 10		≤ 10		
C(#Cc1ccnc2[nH]ccc12)c1ccccc1 [Compound P-0436]	≤ 10			≤ 10	IC50 (Akt3): ≤ 10 µM
N#CCc1ccc(-c2c[nH]c3ncccc23)cc1 [Compound P-0164]	≤ 10		≤ 10	≤ 10	
Cc1ccc(-c2ccnc3[nH]ccc23)cc1N [Compound P-0111]	≤ 10		≤ 10	≤ 10	IC50 (MAP2K1): ≤ 10 µM
CS(=O)(=O)c1ccc(-c2cnc3[nH]ccc3c2)cc1 [Compound P-0682]	≤ 10	≤ 10			IC50 (Ret): ≤ 10 µM; IC50 (Jnk3): ≤ 10 µM

Now from value to molecule, other results behind:

IC50 (IKK beta) [µM]	IC50 (Kit) [µM]	IC50 (Kdr) [µM]	IC50 (Stk6) [µM]	Structure (SMILES)	other results
≤ 10	≤ 10			c1ccc2sc(-c3ccnc4[nH]ccc34)cc2c1 [Compound P-0404]	IC50 (Akt3): ≤ 10 µM; IC50 (Flt1): ≤ 10 µM; IC50 (FGFR1): ≤ 10 µM
≤ 10	≤ 10	≤ 10		COc1cccc(-c2c[nH]c3ncccc23)c1 [Compound P-0216]	
≤ 10		≤ 10	≤ 10	C=Cc1ccc(-c2ccnc3[nH]ccc23)cc1 [Compound P-0098]	IC50 (MAP2K1): ≤ 10 µM
≤ 10		≤ 10	≤ 10	Fc1cc(F)cc(-c2ccnc3[nH]cc(Sc4ccc(Cl)cc4)c23)c1 [Compound P-0172]	
≤ 10			≤ 10	CCS(=O)(=O)c1ccc(-c2c[nH]c3ncccc23)cc1 [Compound P-0272]	
≤ 10	≤ 10	≤ 10		CN(C)c1ccc(Nc2cnc3[nH]ccc3c2)cc1 [Compound P-0962]	IC50 (Akt3): ≤ 10 µM; IC50 (Met): ≤ 10 µM; IC50 (B-Raf V600E): ≤ 10 µM; IC50 (Jnk3): ≤ 10 µM; IC50 (Flt1): ≤ 10 µM
≤ 10	≤ 10	≤ 10	≤ 10	c1cc2cc(-c3ccsc3)cnc2[nH]1 [Compound P-0133]	IC50 (Jnk3): ≤ 10 µM
